Data taken from PMC12040169 (PLOS Biology, 2025).

assay: in vitro; details: human, hela cells, % viability

Row | SMILES | viability at 28.5 h, 10 µM [%]
1 | CCC(C)(C)c1ccc(S(=O)(=O)N2CCN(Cc3cc(C(=O)OC)n(C)c3)CC2)cc1 [CBK062831] | 96.3
2 | CCC(C)(C)c1ccc(S(=O)(=O)N2CCCN(Cc3cn(C)c4ccccc34)CC2)cc1 [CBK062871] | 91.2
3 | CCCC(=O)c1ccc(S(=O)(=O)N2CCCN(Cc3cccc4cccnc34)CC2)cc1 [CBK062909] | 93
4 | CCCC(=O)c1ccc(S(=O)(=O)N2CCCN(Cc3c[nH]nc3-c3ccc(F)cc3)CC2)cc1 [CBK062911] | 121
5 | CCCC(=O)c1ccc(S(=O)(=O)N2CCCN(Cc3c(-c4ccccc4)nc4sccn34)CC2)cc1 [CBK062912] | 119
6 | CCCC(=O)c1ccc(S(=O)(=O)N2CCCN(Cc3ccc(F)cc3Cl)CC2)cc1 [CBK062917] | 116
7 | CCCC(=O)c1ccc(S(=O)(=O)N2CCCN(Cc3ccc(OC)c(F)c3)CC2)cc1 [CBK062926] | 93.7
8 | Cc1c(F)cccc1CN1CCN(S(=O)(=O)c2ccc(C(=O)c3ccccc3)cc2)CC1 [CBK062929] | 102
9 | Cc1cc(CN2CCN(S(=O)(=O)c3ccc(C(=O)c4ccccc4)cc3)CC2)cc(C)c1O [CBK062933] | 90.4
10 | CCOc1ccc(S(=O)(=O)N2CCCN(CCCC#N)CC2)c2cccnc12 [CBK062935] | 98.5
11 | O=S(=O)(c1ccc(C(F)(F)F)cc1Cl)N1CCCN(Cc2ccnc3ccccc23)CC1 [CBK062942] | 101
12 | O=S(=O)(c1ccc(C(F)(F)F)cc1Cl)N1CCCN(Cc2ccc(F)cc2F)CC1 [CBK062946] | 91.8
13 | O=C(c1ccccc1)c1ccc(S(=O)(=O)N2CCN(Cc3ccc(O)c(F)c3)CC2)cc1 [CBK062948] | 95.8
14 | N#Cc1ccc(CN2CCCN(S(=O)(=O)c3ccc(C(=O)c4ccccc4)cc3)CC2)cc1 [CBK062962] | 89.9
15 | CCC(C)(C)c1ccc(S(=O)(=O)N2CCN(Cc3ccc(O)c(F)c3)CC2)cc1 [CBK062968] | 91.7
16 | COC(=O)CCc1ccc(S(=O)(=O)N2CCN(Cc3cccc4cccnc34)CC2)cc1 [CBK062969] | 87.8
17 | O=c1[nH]cc(CN2CCCN(S(=O)(=O)c3ccc(C(F)(F)F)cc3Cl)CC2)c(=O)[nH]1 [CBK062975] | 106
18 | COC(=O)CCc1ccc(S(=O)(=O)N2CCCN(Cc3cccc(Br)c3)CC2)cc1 [CBK062981] | 102
19 | COC(=O)CCc1ccc(S(=O)(=O)N2CCCN(Cc3c[nH]c4ccc(OC)cc34)CC2)cc1 [CBK062985] | 98.1
20 | COC(=O)CCc1ccc(S(=O)(=O)N2CCCN(Cc3cc(F)cc(F)c3)CC2)cc1 [CBK062990] | 106
21 | COC(=O)CCc1ccc(S(=O)(=O)N2CCCN(Cc3c[nH]c4ccc(Cl)cc34)CC2)cc1 [CBK063000] | 99.2

Row | SMILES | viability at 28.5 h, 10 µM [%]
22 | COC(=O)CCc1ccc(S(=O)(=O)N2CCCN(Cc3c(-c4ccccc4)noc3C)CC2)cc1 [CBK063011] | 97.3
23 | CCOC(=O)C1CC1CN1CCCN(S(=O)(=O)c2ccc(C(=O)c3ccccc3)cc2)CC1 (centres unmarked) [CBK063028] | 88.6
24 | CCOc1ccc(S(=O)(=O)N2CCCN(Cc3c[nH]c(C)n3)CC2)c2cccnc12 [CBK063031] | 101
25 | Cc1nc[nH]c1CN1CCCN(S(=O)(=O)c2ccc(C(F)(F)F)cc2Cl)CC1 [CBK063035] | 112
26 | O=S(=O)(c1ccc(C(F)(F)F)cc1Cl)N1CCCN(Cc2ccc3cccc(O)c3n2)CC1 [CBK063036] | 101
27 | O=S(=O)(c1ccc(-c2ccccc2)cc1)N1CCCN(CCCO)CC1 [CBK063043] | 102
28 | CCOc1ccc(S(=O)(=O)N2CCN(CCCC#N)CC2)c2cccnc12 [CBK063046] | 91.6
29 | CCC(C)(C)c1ccc(S(=O)(=O)N2CCCN(Cc3ccc4cccc(O)c4n3)CC2)cc1 [CBK063051] | 90.5
30 | Cc1noc(-c2ccccc2)c1CN1CCCN(S(=O)(=O)c2ccc(C(F)(F)F)cc2Cl)CC1 [CBK063104] | 103
31 | CC(=O)c1ccc(CN2CCCN(S(=O)(=O)c3ccc(C(F)(F)F)cc3Cl)CC2)cc1 [CBK063106] | 104
32 | COc1ccc(CN2CCCN(S(=O)(=O)c3ccc(-c4ccccc4)cc3)CC2)cc1F [CBK063108] | 111
33 | O=S(=O)(c1ccc(-c2ccccc2)cc1)N1CCCN(Cc2ccc(F)c(C(F)(F)F)c2)CC1 [CBK063115] | 98.9
34 | COc1ccc2c(c1)c(CN1CCCN(S(=O)(=O)c3ccc(-c4ccccc4)cc3)CC1)cn2C [CBK063125] | 104
35 | O=S(=O)(c1ccc(-c2ccccc2)cc1)N1CCCN(Cc2cccnc2N2CCOCC2)CC1 [CBK063127] | 99.5
36 | CCC(C)(C)c1ccc(S(=O)(=O)N2CCN(CCCC#N)CC2)cc1 [CBK063134] | 93.4
37 | CCC(C)(C)c1ccc(S(=O)(=O)N2CCN(CCCOC3CCCCO3)CC2)cc1 (centres unmarked) [CBK063135] | 96.9
38 | O=S(=O)(c1ccc(-c2ccccc2)cc1)N1CCCN(CCCOC2CCCCO2)CC1 (centres unmarked) [CBK063137] | 114
39 | CCCC(=O)c1ccc(S(=O)(=O)N2CCN(Cc3cccc(Br)c3)CC2)cc1 [CBK063146] | 87.4
40 | CCCC(=O)c1ccc(S(=O)(=O)N2CCN(Cc3ccc(C(C)=O)cc3)CC2)cc1 [CBK063159] | 107
41 | CCCC(=O)c1ccc(S(=O)(=O)N2CCN(Cc3csc(-c4ccccc4)n3)CC2)cc1 [CBK063161] | 93.3
42 | CCCC(=O)c1ccc(S(=O)(=O)N2CCN(Cc3ccc(F)c(C(F)(F)F)c3)CC2)cc1 [CBK063162] | 101

Row | SMILES | viability at 28.5 h, 10 µM [%]
43 | O=S(=O)(c1ccc(C(F)(F)F)cc1Cl)N1CCN(Cc2cccc(Br)c2)CC1 [CBK063163] | 83.7
44 | COc1ccc2[nH]c3c(c2c1)CCN(S(C)(=O)=O)C31CCN(CCOc2ccccc2)C1 (centres unmarked) [CBK063187T] | 92.9
45 | COc1ccc([C@@]23CC[C@H](NC(=O)Nc4cccc(C(F)(F)F)c4F)C[C@@H]2CN(C)C3)cc1OC [CBK063200A] | 92.3
46 | CCCCc1ccc(NC(=O)Nc2ccc3ccc(Cl)nc3n2)cc1 [CBK063259] | 114
47 | O=C(Nc1cc2ccccc2c(Br)n1)N[C@@H]1C[C@H]1c1ccccc1 [CBK063276] | 92.3
48 | O=C(Nc1cc2ccccc2c(Br)n1)Nc1ccc(F)cc1C(F)(F)F [CBK063278] | 96.3
49 | CCOC(=O)CNC(=O)Nc1cc2ccccc2c(Br)n1 [CBK063279] | 92.5
50 | O=C(NCCc1ccccc1)Nc1cc2cccnc2c(Br)n1 [CBK063283] | 95.9
51 | COc1ccc(NC(=O)Nc2cc3cccnc3c(Br)n2)c(C)c1 [CBK063294] | 96.8
52 | O=C(Nc1cc2ccccc2c(Br)n1)c1ccc(C(F)(F)F)cc1[N+](=O)[O-] [CBK063299] | 92.5
53 | Cc1ccc(S(=O)(=O)NCC(=O)Nc2cc3ccccc3c(Br)n2)cc1 [CBK063300] | 101
54 | O=C(Nc1cc2ccccc2c(Br)n1)C(F)(F)F [CBK063301] | 82
55 | CC(=O)N[C@@H](Cc1c[nH]cn1)C(=O)Nc1cc2ccccc2c(Br)n1 [CBK063302] | 91.3
56 | Cc1ccc(S(=O)(=O)n2ccc3ccc(N4CCN(C)CC4)nc32)cc1 [CBK063327] | 84
57 | Nc1ncc(-c2cccnc2)nc1NCc1ccccc1 [CBK063349] | 102
58 | COc1cncc(-c2cnc(N)c(N3CCOCC3)n2)c1 [CBK063360] | 96.7
59 | CN1CCN(c2nc(-c3ccoc3)cnc2N)CC1 [CBK063362] | 103
60 | COc1cc(-c2cnc(N)c(N3CCC(C(=O)O)CC3)n2)cc(OC)c1OC [CBK063365] | 98.9
61 | Nc1ncc(-c2cccc3cccnc23)nc1N1CCOCC1 [CBK063383] | 93.2
62 | COc1ccc(C(C)C)cc1-c1cnc(N)c(N2CCOCC2)n1 [CBK063384] | 92.1
63 | Nc1ncc(-c2ccc(N3CCOCC3)cc2)nc1N1CCN(CCO)CC1 [CBK063394] | 95.8

Row | SMILES | viability at 28.5 h, 10 µM [%]
64 | CCCC/C=C/c1cnc(N)c(N2CCOCC2)n1 [CBK063398] | 98.1
65 | COc1ccccc1-c1cnc(N)c(N2CCN(CCO)CC2)n1 [CBK063403] | 96.1
66 | Nc1ncc(-c2cc(C(F)(F)F)cc(C(F)(F)F)c2)nc1N1CCN(CCO)CC1 [CBK063426] | 103
67 | Nc1ncc(-c2ccoc2)nc1N1CCN(CCO)CC1 [CBK063428] | 98.8
68 | CC(=O)c1ccc(-c2cnc(N)c(N3CCN(C)CC3)n2)s1 [CBK063432] | 94.4
69 | CN1CCN(c2nc(-c3cccc(F)c3)cnc2N)CC1 [CBK063433] | 100
70 | Nc1ncc(-c2cccc(OC(F)(F)F)c2)nc1N1CCN(CCO)CC1 [CBK063435] | 94.9
71 | CC(=O)c1ccc(-c2cnc(N)c(N3CCC[C@@H]3CO)n2)s1 [CBK063438] | 97.9
72 | Nc1ncc(-c2ccco2)nc1N1CCC(C(=O)O)CC1 [CBK063440] | 87
73 | Nc1ncc(-c2cccc3ncccc23)nc1N1CCC[C@@H]1CO [CBK063441] | 105
74 | Nc1ncc(-c2ccco2)nc1N1CCOCC1 [CBK063456] | 80.2
75 | CN(C)CCN1CCN(c2nc(-c3ccc(S(C)(=O)=O)cc3)cnc2N)CC1 [CBK063457] | 100
76 | CC(C)(CO)CNc1nc(-c2ccc3c(c2)OCO3)cnc1N [CBK063459] | 105
77 | CN(C)CCN1CCN(c2nc(-c3cccc4cccnc34)cnc2N)CC1 [CBK063464] | 94.3
78 | CC(=O)Nc1cccc(-c2cnc(N)c(N3CCN(CCN(C)C)CC3)n2)c1 [CBK063472] | 91.1
79 | COCCNc1nc(-c2cccc(-c3ccccc3)c2)cnc1N [CBK063474] | 99.5
80 | CC(C)(CO)CNc1nc(-c2cccnc2)cnc1N [CBK063475] | 100
81 | CC(C)(CO)CNc1nc(-c2ccc(F)c(Cl)c2)cnc1N [CBK063484] | 102
82 | COc1cc(-c2cnc(N)c(N3CCN(CCN(C)C)CC3)n2)cc(OC)c1OC [CBK063488] | 94.4
83 | COc1ccc(-c2cnc(N)c(N3CCN(C)CC3)n2)c(OC)c1OC [CBK063489] | 103
